The text below walks through data of patent publication US12371426B2, “Pyridazine derivatives as SMARCA2/4 degraders” (Aurigene Discovery Technologies Limited, priority 2018, dated 2025).

This experiment deals with NCI-H929 cells. Kind of experiment: Anti proliferative activity in NCI-H929 cell line by Cell Titer Glo assay. Conditions: Homo sapiens, 72 h, 3 days compound incubation, CellTiter Glo, read-out: Anti-proliferative activity IC50 group (NCI-H929 cells). It counts as cell-based. As to the method: Determination of Anti Proliferative Activity of Compounds in NCI-H929 and NCI-H838 Cell Lines by Cell Titer Glo® (promega) assay:
NCI-H929 (ATCC CRL-9068) or NCI-H838 (ATCC CRL-5844) cells were seeded in 96 well plate flat black clear bottom plates (Corning, Cat. No 3904) using complete RPMI-1640 media. Next day, compounds listed in the present invention were added to cells from 10 mM stocks made in DMSO (Sigma Cat no. D2650). Each concentration of compound was tested in triplicate with DMSO concentration at a final percentage not exceeding 0.3 in the cells. After the compound incubation (3 days for H929 and 8 days for H838) assay was terminated using 50 μl of CellTiter Glo® reagent (Promega, Cat. no G7572). CellTiter Glo® Luminescent reagent determines the number of viable cells based on quantitation of ATP present which is an indicator of cell number and metabolic activity. Luminescence readings were taken in Victor-3 instrument. Percent inhibition of proliferation was calculated using formula, % inhibition=100−(luminescence value of test/luminescence value of DMSO control)*100. DMSO control (0%)=Cells in complete media with DMSO; blank=Media alone containing DMSO. IC50 was calculated using graph pad prism software.
Herein group “A” refers to IC50 value lower than 1 μM, “B” refers to IC50 value between 1-10 μM (both inclusive) and “C” refers to IC50 value higher than 10 μM or less than 50% activity at 10 μM.
In general terms: ATP-based viability assays read luminescence as a measure of living cells.

The IC50 is the concentration that inhibits the measured activity by half.

Molecules are shown by their SMILES.

With `Nc1nnc(-c2ccccc2O)cc1N1CCC(NC(=O)CCCCCCC(=O)Nc2cccc3c2CN(C2CCC(=O)NC2=O)C3=O)CC1` (stereo not shown) [Compound 17], the 50% inhibitory concentration (IC50) was > 10 µM.

Turning to `Nc1nnc(-c2ccccc2O)cc1N1CCN(C(=O)CCCCCCC(=O)Nc2cccc3c2CN(C2CCC(=O)NC2=O)C3=O)CC1` (stereo not shown) [Compound 26], the IC50 is > 10 µM.

On to `Cc1ncsc1-c1ccc([C@H](C)NC(=O)[C@@H]2C[C@@H](O)CN2C(=O)[C@@H](NC(=O)CCCC(=O)N2CCN(c3cc(-c4ccccc4O)nnc3N)CC2)C(C)(C)C)cc1` [Compound 114], for which the half-maximal inhibitory concentration (IC50) is > 10 µM.

Consider `Cc1ncsc1-c1ccc(CNC(=O)[C@@H]2C[C@@H](O)CN2C(=O)[C@@H](NC(=O)COCCOCCOCCOCCNC(=O)C2CCN(c3cc(-c4ccccc4O)nnc3N)CC2)C(C)(C)C)cc1` [Compound 3], for which the half-inhibitory concentration (IC50) was > 10 µM.

Regarding `Cc1ncsc1-c1ccc(CNC(=O)[C@@H]2C[C@@H](O)CN2C(=O)[C@@H](NC(=O)CCCCCCC(=O)N2CCN(c3cc(-c4ccccc4O)nnc3N)CC2)C(C)(C)C)cc1` [Compound 34], the IC50 was > 10 µM.

As for `Cc1ncsc1-c1ccc([C@H](C)NC(=O)[C@@H]2C[C@@H](O)CN2C(=O)[C@@H](NC(=O)CCCCCCCC(=O)N2CCN(c3cc(-c4ccccc4O)nnc3N)CC2)C(C)(C)C)cc1` [Compound 111], the IC50 is < 1 µM.

In the case of `Nc1nnc(-c2ccccc2O)cc1N1CCC(NC(=O)COCC(=O)Nc2cccc3c2CN(C2CCC(=O)NC2=O)C3=O)CC1` (stereo not shown) [Compound 15], the 50% inhibitory concentration (IC50) was > 10 µM.

For `Cc1ncsc1-c1ccc(CNC(=O)[C@@H]2C[C@@H](O)CN2C(=O)[C@@H](NC(=O)COCC(=O)NC2CCN(c3cc(-c4ccccc4O)nnc3N)CC2)C(C)(C)C)cc1` [Compound 14], the IC50 was > 10 µM.

Consider `Nc1nnc(-c2ccccc2O)cc1N1CCN(C(=O)CCCCCCCCCC(=O)Nc2cccc3c2CN(C2CCC(=O)NC2=O)C3=O)CC1` (stereo not shown) [Compound 27], for which the IC50 was > 10 µM.

On to `Cc1ncsc1-c1ccc([C@H](C)NC(=O)[C@@H]2C[C@@H](O)CN2C(=O)[C@@H](NC(=O)CN2CCN(c3ccnnc3N)CC2)C(C)(C)C)cc1` [Compound 67, (2S,4R)-1-((S)-2-(2-(4-(3-aminopyridazin-4-yl)piperazin-1-yl)acetamido)-3,3-dimethylbutanoyl)-4-hydroxy-N—((S)-1-(4-(4-methylthiazol-5-yl)phenyl)ethyl)pyrrolidine-2-carboxamide], for which the concentration for half-maximal inhibition (IC50) was > 10 µM.

For the compound `Cc1ncsc1-c1ccc([C@H](C)NC(=O)[C@@H]2C[C@@H](O)CN2C(=O)[C@@H](NC(=O)CN2CCN(c3cc(-c4ccccc4)nnc3N)CC2)C(C)(C)C)cc1` [Compound 46], the 50% inhibitory concentration (IC50) was > 10 µM.

Take `Cc1ncsc1-c1ccc([C@H](C)NC(=O)[C@@H]2C[C@@H](O)CN2C(=O)[C@@H](NC(=O)CC2CCN(c3cc(-c4ccccc4F)nnc3N)CC2)C(C)(C)C)cc1` [Compound 97]: the half-maximal inhibitory concentration (IC50) fell in the range of 1 to 10 µM.

With `Cc1ncsc1-c1ccc(CNC(=O)[C@@H]2C[C@@H](O)CN2C(=O)[C@@H](NC(=O)COCCOCCNC(=O)C2CCN(c3cc(-c4ccccc4O)nnc3N)CC2)C(C)(C)C)cc1` [Compound 2], the IC50 is > 10 µM.

Consider `Cc1ncsc1-c1ccc([C@H](C)NC(=O)[C@@H]2C[C@@H](O)CN2C(=O)[C@@H](NC(=O)CC2CN(c3cc(-c4ccccc4O)nnc3N)C2)C(C)(C)C)cc1` [Compound 104], for which the half-maximal inhibitory concentration (IC50) was 1 to 10 µM.

In the case of `Cc1ncsc1-c1ccc(CNC(=O)[C@@H]2C[C@@H](O)CN2C(=O)[C@@H](NC(=O)CCCC(=O)N2CCN(c3cc(-c4ccccc4O)nnc3N)CC2)C(C)(C)C)cc1` [Compound 33], the IC50 is > 10 µM.

Take `Cc1ncsc1-c1ccc(CNC(=O)[C@H]2C[C@H](O)CN2C(=O)[C@H](NC(=O)CCCCCCCCCC(=O)NC2CCN(c3cc(-c4ccccc4O)nnc3N)CC2)C(C)(C)C)cc1` [Compound 22]: the IC50 is > 10 µM.

On to `Cc1ncsc1-c1ccc(CNC(=O)[C@@H]2C[C@@H](O)CN2C(=O)[C@@H](NC(=O)COCC(=O)N2CCN(c3cc(-c4ccccc4O)nnc3N)CC2)C(C)(C)C)cc1` [Compound 31], for which the concentration for half-maximal inhibition (IC50) is > 10 µM.

Regarding `Nc1nnc(-c2ccccc2O)cc1N1CCC(C(=O)NCCOCC(=O)Nc2cccc3c2C(=O)N(C2CCC(=O)NC2=O)C3=O)CC1` (stereo not shown) [Compound 6], the IC50 was > 10 µM.

Regarding `Cc1ncsc1-c1ccc(CNC(=O)[C@@H]2C[C@@H](O)CN2C(=O)[C@@H](NC(=O)CCCCCCC(=O)NC2CCN(c3cc(-c4ccccc4O)nnc3N)CC2)C(C)(C)C)cc1` [Compound 21], the half-maximal inhibitory concentration (IC50) is > 10 µM.

`COc1ccccc1-c1cc(N2CCN(CC(=O)N[C@H](C(=O)N3C[C@H](O)C[C@H]3C(=O)N[C@@H](C)c3ccc(-c4scnc4C)cc3)C(C)(C)C)CC2)c(N)nn1` [Compound 45]: the IC50 was > 10 µM.

As for `Cc1ncsc1-c1ccc([C@H](C)NC(=O)[C@@H]2C[C@@H](F)CN2C(=O)[C@@H](NC(=O)CN2CCN(c3cc(-c4ccccc4O)nnc3N)CC2)C(C)(C)C)cc1` [Compound 107], the IC50 lay in the range of 1 to 10 µM.

Turning to `Cc1ncsc1-c1ccc([C@H](C)NC(=O)[C@@H]2C[C@H](O)CN2C(=O)[C@@H](NC(=O)CN2CCN(c3cc(-c4ccccc4O)nnc3N)CC2)C(C)(C)C)cc1` [Compound 106], the concentration for half-maximal inhibition (IC50) is 1 to 10 µM.

Regarding `Cc1ncsc1-c1ccc([C@H](C)NC(=O)[C@@H]2C[C@@H](O)CN2C(=O)[C@@H](NC(=O)CCCCC(=O)N2CCN(c3cc(-c4ccccc4O)nnc3N)CC2)C(C)(C)C)cc1` [Compound 110], the IC50 was < 1 µM.

Take `Nc1nnc(-c2ccccc2O)cc1N1CCC(C(=O)NCCOCCOCCOCCOCC(=O)Nc2cccc3c2C(=O)N(C2CCC(=O)NC2=O)C3=O)CC1` (stereo not shown) [Compound 8]: the IC50 was > 10 µM.

For the compound `Nc1nnc(-c2ccccc2O)cc1N1CCN(CC(=O)Nc2cccc3c2CN(C2CCC(=O)NC2=O)C3=O)CC1` (stereo not shown) [Compound 42], the IC50 is > 10 µM.

Regarding `Cc1ncsc1-c1ccc(CNC(=O)[C@@H]2C[C@@H](O)CN2C(=O)[C@@H](NC(=O)COCCNC(=O)C2CCN(c3cc(-c4ccccc4O)nnc3N)CC2)C(C)(C)C)cc1` [Compound 1, 1-(3-amino-6-(2-hydroxyphenyl)pyridazin-4-yl)-N-(2-(2-(((S)-1-((2S,4R)-4-hydroxy-2-((4-(4-methylthiazol-5-yl)benzyl)carbamoyl)pyrrolidin-1-yl)-3,3-dimethyl-1-oxobutan-2-yl)amino)-2-oxoethoxy)ethyl)piperidine-4-carboxamide], the half-maximal inhibitory concentration (IC50) is > 10 µM.

Regarding `Cc1ncsc1-c1ccc([C@H](C)NC(=O)[C@@H]2C[C@@H](O)CN2C(=O)[C@@H](NC(=O)CCCCCC(=O)N2CCN(c3cc(-c4ccccc4O)nnc3N)CC2)C(C)(C)C)cc1` [Compound 112], the IC50 was < 1 µM.

On to `Nc1nnc(-c2ccccc2O)cc1N1CCC(NC(=O)COCC(=O)Nc2cccc3c2C(=O)N(C2CCC(=O)NC2=O)C3=O)CC1` (stereo not shown) [Compound 16], for which the 50% inhibitory concentration (IC50) was > 10 µM.

Take `Cc1ncsc1-c1ccc([C@H](C)NC(=O)[C@@H]2C[C@@H](O)CN2C(=O)[C@@H](NCC(=O)N2CCN(c3cc(-c4ccccc4O)nnc3N)CC2)C(C)(C)C)cc1` [Compound 49, (2S,4R)-1-((S)-2-((2-(4-(3-amino-6-(2-hydroxyphenyl)pyridazin-4-yl)piperazin-1-yl)-2-oxoethyl)amino)-3,3-dimethylbutanoyl)-4-hydroxy-N—((S)-1-(4-(4-methylthiazol-5-yl)phenyl)ethyl)pyrrolidine-2-carboxamide]: the IC50 was 1 to 10 µM.

For the compound `Nc1nnc(-c2ccccc2O)cc1N1CCC(C(=O)NCCOCCOCCOCC(=O)Nc2cccc3c2CN(C2CCC(=O)NC2=O)C3=O)CC1` (stereo not shown) [Compound 12], the IC50 is > 10 µM.

`Cc1ncsc1-c1ccc(CNC(=O)[C@@H]2C[C@H](O)CN2C(=O)[C@@H](NC(=O)CN2CCN(c3cc(-c4ccccc4O)nnc3N)CC2)C(C)(C)C)cc1` [Compound 105]: the IC50 fell in the range of 1 to 10 µM.

`Cc1ncsc1-c1ccc(CNC(=O)[C@@H]2C[C@@H](O)CN2C(=O)[C@@H](NC(=O)C2CCN(c3cc(-c4ccccc4O)nnc3N)CC2)C(C)(C)C)cc1` [Compound 5]: the half-maximal inhibitory concentration (IC50) is > 10 µM.

As to `Nc1nnc(-c2ccccc2O)cc1N1CCC(C(=O)NCCOCCOCC(=O)Nc2cccc3c2C(=O)N(C2CCC(=O)NC2=O)C3=O)CC1` (stereo not shown) [Compound 9], the IC50 was > 10 µM.

As to `Nc1nnc(-c2ccccc2O)cc1N1CCC(NC(=O)CCCCCCC(=O)Nc2cccc3c2C(=O)N(C2CCC(=O)NC2=O)C3=O)CC1` (stereo not shown) [Compound 19], the IC50 is > 10 µM.

For `Cc1ncsc1-c1ccc(CNC(=O)[C@@H]2C[C@@H](O)CN2C(=O)[C@@H](NC(=O)CCCC(=O)NC2CCN(c3cc(-c4ccccc4O)nnc3N)CC2)C(C)(C)C)cc1` [Compound 20], the half-inhibitory concentration (IC50) was > 10 µM.

Regarding `Cc1ncsc1-c1ccc([C@H](C)NC(=O)[C@@H]2C[C@@H](O)CN2C(=O)[C@@H](NC(=O)CN2CCN(c3cc(Cl)nnc3N)CC2)C(C)(C)C)cc1` [Compound 50, (2S,4R)-1-((S)-2-(2-(4-(3-amino-6-chloropyridazin-4-yl)piperazin-1-yl)acetamido)-3,3-dimethylbutanoyl)-4-hydroxy-N—((S)-1-(4-(4-methylthiazol-5-yl)phenyl)ethyl)pyrrolidine-2-carboxamide], the half-inhibitory concentration (IC50) is > 10 µM.

Take `Cc1ncsc1-c1ccc([C@H](C)NC(=O)[C@@H]2C[C@H](O)CN2C(=O)[C@@H](NC(=O)CCCCCCC(=O)N2CCN(c3cc(-c4ccccc4O)nnc3N)CC2)C(C)(C)C)cc1` [Compound 115]: the IC50 is 1 to 10 µM.
